Entries after “also recorded” stand apart in the source; their conditions may differ.
Tests used:
[1] = system: fibroblast growth factor-2; settings: in vivo; cited from earlier work
[2] = system: hippocampal dentate gyrus; assay: Double immunofluorescent staining BrdU/NeuN in the hippocampal dentate gyrus; assay type: in vivo, rat; settings: 21 days, single BrdU injection at day 20
Procedure: Tissue sections from intestinal mucosa, where many new cells are generated, were used as positive controls. […] Omission of the primary, anti-BrdU antibody provided additional negative controls.
(§1) In these experiments, the effect of the atypical neuroleptics in the hippocampus was evaluated. In the experiments shown in FIG. 5, rats were treated with vehicle, a typical neuroleptic (Haloperidol) (data not shown), or an atypical neuroleptic (Risperidone or Olanzapine) for 21 day s. A single injection of BrdU was given to each rat intraperitoneally at day 20. Frozen sections from rat brain were incubated with a monoclonal mouse-anti BrdU antibody and a biotinylated anti-mouse secondary antibody and developed with avidin-biotin reagent and DAB.
The animal was treated with Olanzapine for 21 day s and a single injection of BrdU given intraperitoneally at day 20. Frozen sections were incubated with sheep-anti BrdU and mouse-anti NeuN antibodies. Secondary antibodies were a combination of Cy-3-conjugated anti-sheep antibody and Cy-2-conjugated anti-mouse antibody.

cognition = assay: Cognitive performance of rats under long-term treatment; assay type: in vivo, rat; settings: up to 90 days of treatment
Procedure: Atypical Neuroleptics Improve Cognition In this experiment, the effects of atypical neuroleptics and typical neuroleptics on cognition was evaluated. Rats were treated with either vehicle (water), Haloperidol, or Risperidone.

[3] = system: subventricular zone (SVZ); assay: BrdU uptake (newly divided cells) in the subventricular zone of rats after 21 days of drug in drinking water; assay type: in vivo, rat; settings: for BrdU positive (BrdU+) cells / mean cell counts in the subventricular zone versus vehicle control: rats, 21 days in drinking water, single BrdU injection at day 20
Procedure: Groups of age- and weight-matched (five rats per group) adult male Wistar rats were fed ad libitum for 21 day s with either Haloperidol, 0.4 mg/kg/day, Risperidone (Janssen Pharmaceutica Res Foundation, Piscataway, N.J.) 0.5 mg/kg/day, or Olanzapine (Ely Lilly and Co., Indianapolis, Ind.) 2 mg/kg/day. Control groups received vehicle only. All drugs were administered in drinking water. Water bottles were tightly sealed with leak-proof lids. Fluid intake was measured for each animal for every 3 days and fresh drug was replaced accordingly to maintain the daily dosage.
On the 20th day of treatment, bromodeoxyuridine (BrdU, Sigma Chemical, St. Louis, Mo.), dissolved in distilled water, was injected intraperitonally in a volume of 0.3 ml or less per rat to deliver a dosage of 50 mg/kg, for the labeling of newly divided cells. One day after the BrdU injection, rats were anesthetized under ketamine (100 mg/kg) and xylazine (0.6 mg/kg) anesthesia with saline cardiac perfusion. Brains were removed quickly, placed in a brain matrix, cut into 5-mm blocks, cryoprotected in O.C.T. (Tissue-Tek) compound and frozen in isopentane in liquid nitrogen. Samples were stored at −80° C. until immunostaining.
Coronal brain sections, 10 μm-thick, were cut in a cryotome. Every fifth section was processed for immunohistochemistry with anti-BrdU antibody (Sigma Chemical). Sections were fixed in 4% paraformaldehyde and denatured in 2 N HCl for 30 min. Following incubation with primary antibody, sections were developed with avidin-biotin reagents using a biotinylated donkey anti-mouse-IgG antibody (Vector Labs., Burlingame, Calif.) and diaminobenzidine (DAB). Separate investigators performed sectioning, immunostaining, and counting of BrdU-positive cells in a double-blinded manner. To ensure consistency, one investigator who was unaware of treatment and staining protocols was responsible for counting BrdU-positive cells for the entire study.
SVZ was identified as the cell layer ventral and lateral to the ependymal layer. […] Cells along the lateral aspect of the subependymal region including the dorsolateral angle of the ventricle on both left and right hemispheres, and ventral to the corpus callosum were counted. The few BrdU-positive cells present outside this area were not counted. Five sections from each animal were counted and the average total BrdU positive cells calculated. To validate the BrdU staining of newly divided cells, an antibody against proliferating cell nuclear antigen (PCNA), from Sigma Chemical, was also used.
In these experiments, the effects on neurogenesis of treatment of animals with the atypical neuroleptics, Risperidone and Olanzapine, was assessed. […] In the experiments shown in FIG. 1, rats were treated with a vehicle, a typical neuroleptic, or an atypical neuroleptic for 21 day s. A single injection of BrdU was given to each rat intraperitoneally at day 20. Sections from brains of each animal were prepared and frozen for subsequent analysis. For immunostaining, frozen sections from rat brain were incubated with a monoclonal mouse-anti BrdU antibody, and a biotinylated anti-mouse secondary antibody and developed with avidin-biotin reagent and DAB. Shown in FIG. 1 is the staining for: (A) a vehicle-treated control rat; (B) a Haloperidol-treated rat; (C) a Risperidone-treated rat; and (D) an Olanzapine-treated rat. The arrows show some of the BrdU+ cells. […]
For quantification, the number of BrdU positive cells was counted for each group. […]

superoxide dismutase = settings: in vitro; cited from earlier work
nerve growth factor = settings: in vitro; cited from earlier work
[4] = system: hippocampal dentate gyrus; assay: BrdU+ cell count in the hippocampal dentate gyrus; assay type: in vivo, rat; settings: 21 days, single BrdU injection at day 20
Procedure: as §1

[5] = system: subventricular zone (SVZ); assay: Double immunofluorescent staining BrdU/NeuN and BrdU/GFAP in the subventricular zone, weekly BrdU injection; assay type: in vivo, rat; settings: 21 days, BrdU injected at day 7, 14 and 20
Description: A second study was undertaken in which 15 rats were divided in three treatment groups: Olanzapine-, haldol-, and vehicle-treated. In this study, BrdU injection was given once a week (starting on day 7) and one animal from each group was killed on days 14, 21, 28, 35, and 42. Tissue sections from this study were used in double immunofluorescent staining for either BrdU/NeuN or BrdU/glial fibrillary acidic protein (GFAP).
To evaluate whether the BrdU-positive cells expressed any neuronal or astrocytic markers, sections were subjected to double immunofluorescent staining, using sheep anti-BrdU serum (Biodesign) in combination with either a mouse anti-NeuN (as a neuronal marker, Chemicon, Tememcula, Calif.) or a rabbit anti-glial fibrillary acidic protein (an astrocytic marker, Dako, Carpinteria, Calif.), and the appropriate secondary antibodies that had been conjugated with cyanin dyes were used for visualization (Jackson Lab, Bar Harbor, Me.). […]
To evaluate whether the BrdU-positive cells express any cell type-specific marker, double immunofluoresence microscopy using either anti-NeuN or anti-GFAP antibody in combination with anti-BrdU antibody was performed. […] No BrdU+/GFAP+ cells were detected. Although the double-stained (BrdU+/NeuN+) cells were not quantified, there were clearly more BrdU+/NeuN+ in rats treated with the atypical neuroleptics than that in the untreated control rats.

[6] = system: nerve growth factor (NGF)-receptor; settings: in vitro; cited from earlier work

Row | Compound | fibroblast growth factor-2 (FGF-2) expression [1] | NeuN (or GFAP) expression of BrdU+ cells in the hippocampus [2] | cognitive performance as compared to the vehicle (cognition) | mean cell counts in the subventricular zone versus Olanzapine and Risperidone (Tukey multiple comparison) ([3]; 21 days, n=5) | BrdU positive (BrdU+) cells / mean cell counts in the subventricular zone versus vehicle control [3] | BrdU positive (BrdU+) cells / mean cell counts in the subventricular zone versus vehicle control ([3]; listed as Haldolperidol) | expression of superoxide dismutase (superoxide dismutase) | expression of nerve growth factor (nerve growth factor) | average numbers of BrdU-positive cells in the hippocampal dentate gyrus versus control group [4] | statistical significance of the increase in neurogenesis in the hippocampus [4] | BrdU+/GFAP+ cells in the SVZ [5] | BrdU+/NeuN+ cells in the SVZ [5] | expression of nerve growth factor (NGF)-receptor [6]
1 | CN1CCN(C2=Nc3cc(Cl)ccc3Nc3ccccc32)CC1 [Clozapine, 8-chloro-11-(4-methyl-1-piperazinyl)-5H-dibenzo [b,e] [1,4] diazepine] | increases; also recorded: modulate |  |  |  |  |  |  |  |  |  |  |  | 
2 | O=C(CCCN1CCC(O)(c2ccc(Cl)cc2)CC1)c1ccc(F)cc1 [Haloperidol] |  | did not express NeuN (or GFAP) | significantly impaired | significantly lower | No differences | not significantly different |  |  |  |  |  |  | 
3 | Cc1cc2c(s1)Nc1ccccc1N=C2N1CCN(C)CC1 [Olanzapine, 2-methyl-4-(4-methyl-1-piperazinyl)-10H-thieno[2,3-b] [1,5]benzodiazepine] |  | 3 BrdU+/NeuN− cells in the subgranular layer and a BrdU+/NeuN+ cell in the apical region of the granular cell layer |  |  | significant increase; also recorded: significantly higher |  | induces the expression | stimulate expression | higher than the control group | not statistically significant | No BrU+/GFAP+ cells were detected; also recorded: essentially none | numerous; also recorded: increase | induces the expression
4 | Cc1nc2n(c(=O)c1CCN1CCC(c3noc4cc(F)ccc34)CC1)CCCC2 [Risperidone, 3-[2-[4-(6-fluoro-1,2-benzisoxazol-3-yl)-1-piperidinyl]ethyl]-6,7,8,9-tetrahydro-2-methyl-4H-pyrido[1,2-a]pyrimidin-4-one] |  |  | improved performance |  | significant increase; also recorded: significantly higher |  |  |  | higher than the control group | not statistically significant |  |  | 

Reference: patent US20030064082A1, “Antipsychotic agents stimulate neurogenesis in brain” (priority 2001, published 2003)
